Eleven molecules from US10538555B2, “Macrocyclic inhibitors of the PD-1/PD-L1 and CD80(B7-1)/PD-L1 protein/protein interactions” (BRISTOL-MYERS SQUIBB COMPANY, priority 2014, dated 2020) can be followed below.

Where a SMILES comes first, the peptide text is derived from it. Bridges are numbered along the chain shown (N, C = ends). [ ]: non-standard residue; d: D form. ξ: configuration not given here. Trp(1-CH2COOH) = N[C@@H](Cc1cn(CC(=O)O)c2ccccc12)C(=O)O; Phe(3,4,5-F3) = N[C@@H](Cc1cc(F)c(F)c(F)c1)C(=O)O; Phe(3,4-F2) = N[C@@H](Cc1ccc(F)c(F)c1)C(=O)O; NMePhe(4-Me) = CN[C@@H](Cc1ccc(C)cc1)C(=O)O; Trp(1-Me) = Cn1cc(C[C@H](N)C(=O)O)c2ccccc21; NMePhe(4-F) = CN[C@@H](Cc1ccc(F)cc1)C(=O)O; Phe(4-F) = N[C@@H](Cc1ccc(F)cc1)C(=O)O; d(cisHyp) = O=C(O)[C@H]1C[C@@H](O)CN1; Bta = N[C@@H](Cc1csc2ccccc12)C(=O)O; Hyp = O=C(O)[C@@H]1C[C@@H](O)CN1; NMeF = CN[C@@H](Cc1ccccc1)C(=O)O; dPip(4-aza) = O=C(O)[C@H]1CNCCN1; dHyp = O=C(O)[C@H]1C[C@H](O)CN1; NMeNle = CCCC[C@H](NC)C(=O)O; Pip = O=C(O)[C@@H]1CCCCN1; dPip = O=C(O)[C@H]1CCCCN1; hSer = N[C@@H](CCO)C(=O)O; NMeA = CN[C@@H](C)C(=O)O; Orn = NCCC[C@H](N)C(=O)O; Dab = NCC[C@H](N)C(=O)O; ξC = NC(CS)C(=O)O

T1 sequence (Q9NZQ7 with tags, fused parts or gaps): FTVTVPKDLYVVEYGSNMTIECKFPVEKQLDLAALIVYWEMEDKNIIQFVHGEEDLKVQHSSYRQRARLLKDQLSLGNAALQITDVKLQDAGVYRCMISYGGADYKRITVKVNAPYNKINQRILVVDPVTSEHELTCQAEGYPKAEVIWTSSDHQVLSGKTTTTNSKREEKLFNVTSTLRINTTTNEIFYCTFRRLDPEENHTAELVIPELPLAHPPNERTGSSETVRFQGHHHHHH

One assay has as its target T1, Human PD-L1/PD-1 (Homo sapiens, UniProt Q9NZQ7).
T1 construct: TVMV protease cleavage site (C); made in house; host or cells: HEK293T cells
Description: HTRF Human PD-L1/PD-1 binding assay (PD-1-Ig/PD-L1-His). The conditions noted are these: PD-L1-His 10 nM, PD-1-Ig 20 nM; class symbol; read-out: HTRF Human PD-L1/PD-1 Binding Assay IC50 Range. Put shortly: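 Truncated Fc-fused human PD-1 (aa 25-167) at 20 nM and His-tagged PD-L1 (aa 18-239) at 10 nM final are used, with peptides preincubated 15 min with PD-L1. Detection uses europium-cryptate anti-Ig and APC anti-His antibodies; 665/620 nm ratio.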
(In general: In TR-FRET formats the signal depends on donor and acceptor labels being close together.)
For the molecule `CCCC[C@H]1C(=O)N(C)[C@@H](CCCC)C(=O)N[C@@H](CCC(=O)O)C(=O)NC(C(=O)NCC(N)=O)CSCC(=O)N[C@@H](Cc2ccc(O)cc2)C(=O)N(C)[C@@H](C)C(=O)N[C@@H](CC(N)=O)C(=O)N2CCC[C@H]2C(=O)N[C@@H](Cc2c[nH]cn2)C(=O)N[C@@H](CC(N)=O)C(=O)N2C[C@H](O)C[C@H]2C(=O)N[C@@H](Cc2c[nH]c3ccccc23)C(=O)N[C@@H](CCO)C(=O)N[C@@H](Cc2c[nH]c3ccccc23)C(=O)N1C` (some centres unmarked) [Example 9187] ({CH2CO}-Y[NMeA]NPHN[Hyp]W[hSer]W[NMeNle][NMeNle]E[ξC]G-NH2; thioether N-14), the IC50 was 1 to 9.9 nM.
In the case of `CCCC[C@H]1C(=O)N(C)[C@@H](CCCC)C(=O)N[C@@H](CCC(=O)O)C(=O)N[C@H](C(=O)NCC(N)=O)CSCC(=O)N[C@@H](Cc2ccc(O)cc2)C(=O)N2CCCC[C@H]2C(=O)N[C@@H](CC(N)=O)C(=O)N2CCC[C@H]2C(=O)N[C@@H](Cc2cnc[nH]2)C(=O)N[C@@H](CCC(=O)O)C(=O)N2C[C@H](O)C[C@H]2C(=O)N[C@@H](Cc2c[nH]c3ccccc23)C(=O)N[C@@H](CO)C(=O)N[C@@H](Cc2cn(C)c3ccccc23)C(=O)N1C` [Example 1504] ({CH2CO}-Y[Pip]NPHE[Hyp]WS[Trp(1-Me)][NMeNle][NMeNle]ECG-NH2; thioether N-14), the IC50 is 10 to 99.9 nM.
For the molecule `CCCC[C@H]1C(=O)N2CCC[C@@H]2C(=O)N[C@@H](CC(=O)O)C(=O)N[C@@H](C(C)C)C(=O)N(C)[C@@H](Cc2ccc(C)cc2)C(=O)N[C@@H](CCC(=O)O)C(=O)N2CCC[C@@H]2C(=O)N[C@@H](Cc2c[nH]c3ccccc23)C(=O)N[C@@H](Cc2ccc(O)cc2)C(=O)N[C@@H](CC(C)C)C(=O)N[C@H](C(=O)NCC(N)=O)CSCC(=O)N[C@@H](Cc2ccc(F)cc2)C(=O)N(C)[C@@H](Cc2ccccc2)C(=O)N1C` [Example 10115] ({CH2CO}-[Phe(4-F)][NMeF][NMeNle][dP]DV[NMePhe(4-Me)]E[dP]WYLCG-NH2; thioether N-13), the IC50 lay within 100 to 990 nM.
Take `CCCC[C@H]1C(=O)N2C[C@H](O)C[C@@H]2C(=O)N[C@@H](CC(=O)O)C(=O)N[C@@H](C(C)C)C(=O)N(C)[C@@H](Cc2ccccc2)C(=O)N[C@@H](CCC(=O)O)C(=O)N2CCNC[C@@H]2C(=O)N[C@@H](Cc2c[nH]c3ccccc23)C(=O)N[C@@H](Cc2ccc(O)cc2)C(=O)N[C@@H](CC(C)C)C(=O)N[C@H](C(=O)NCC(N)=O)CSCC(=O)N[C@@H](Cc2cc(F)c(F)c(F)c2)C(=O)N(C)[C@@H](Cc2ccccc2)C(=O)N1C` [Example 10163] ({CH2CO}-[Phe(3,4,5-F3)][NMeF][NMeNle][d(cisHyp)]DV[NMeF]E[dPip(4-aza)]WYLCG-NH2; thioether N-13): the IC50 is 10 to 99.9 nM.
Turning to `CCCC[C@H]1C(=O)N2C[C@H](O)C[C@@H]2C(=O)N[C@@H](CC(=O)O)C(=O)N[C@@H](C(C)C)C(=O)N(C)[C@@H](Cc2ccccc2)C(=O)N[C@@H](CCC(=O)O)C(=O)N2C[C@H](O)C[C@@H]2C(=O)N[C@@H](Cc2c[nH]c3ccccc23)C(=O)N[C@@H](Cc2ccc(O)cc2)C(=O)N[C@@H](CCC(=O)O)C(=O)N[C@H](C(=O)NCC(N)=O)CSCC(=O)N[C@@H](Cc2ccc(F)c(F)c2)C(=O)N(C)[C@@H](Cc2ccccc2)C(=O)N1C` [Example 9312] ({CH2CO}-[Phe(3,4-F2)][NMeF][NMeNle][d(cisHyp)]DV[NMeF]E[d(cisHyp)]WYECG-NH2; thioether N-13), the IC50 was 10 to 99.9 nM.
For the molecule `CCCC[C@H]1C(=O)N2C[C@H](O)C[C@@H]2C(=O)N[C@@H](CC(=O)O)C(=O)N[C@@H](C(C)C)C(=O)N(C)[C@@H](Cc2ccccc2)C(=O)N[C@@H](CC(N)=O)C(=O)N2C[C@H](O)C[C@@H]2C(=O)N[C@@H](Cc2c[nH]c3ccccc23)C(=O)N[C@@H](Cc2ccc(O)cc2)C(=O)N[C@@H](CC(C)C)C(=O)N[C@H](C(=O)NCC(N)=O)CSCC(=O)N[C@@H](Cc2ccc(F)c(F)c2)C(=O)N(C)[C@@H](Cc2ccccc2)C(=O)N1C` [Example 9292], the IC50 was 1 to 9.9 nM.
Take `CCCC[C@H]1C(=O)N(C)[C@@H](CCCC)C(=O)N[C@@H](CCN)C(=O)N[C@H](C(=O)NCC(N)=O)CSCC(=O)N[C@@H](Cc2ccc(O)cc2)C(=O)N(C)[C@@H](C)C(=O)N[C@@H](CC(N)=O)C(=O)N2CCC[C@H]2C(=O)N[C@@H](Cc2cnc[nH]2)C(=O)N[C@@H](CCC(=O)O)C(=O)N2C[C@H](O)C[C@H]2C(=O)N[C@@H](Cc2c[nH]c3ccccc23)C(=O)N[C@@H](CCN)C(=O)N[C@@H](Cc2cn(CC(=O)O)c3ccccc23)C(=O)N1C` [Example 6331] ({CH2CO}-Y[NMeA]NPHE[Hyp]W[Dab][Trp(1-CH2COOH)][NMeNle][NMeNle][Dab]CG-NH2; thioether N-14): the IC50 lay within 1 to 9.9 nM.
For the molecule `CCCC[C@H]1C(=O)N2CCC[C@@H]2C(=O)N[C@@H](CCN)C(=O)N[C@@H](C(C)C)C(=O)N(C)[C@@H](Cc2ccccc2)C(=O)N[C@@H](CC(=O)O)C(=O)N2CCCC[C@@H]2C(=O)N[C@@H](Cc2c[nH]c3ccccc23)C(=O)N[C@@H](Cc2ccc(O)cc2)C(=O)N[C@@H](CC(C)C)C(=O)N[C@H](C(=O)NCC(N)=O)CSCC(=O)N[C@@H](Cc2cc(F)c(F)c(F)c2)C(=O)N(C)[C@@H](Cc2ccc(F)cc2)C(=O)N1C` [Example 10581] ({CH2CO}-[Phe(3,4,5-F3)][NMePhe(4-F)][NMeNle][dP][Dab]V[NMeF]D[dPip]WYLCG-NH2; thioether N-13), the IC50 fell in the range of 10 to 99.9 nM.
For the molecule `CCCC[C@H]1C(=O)N(C)[C@@H](CCCC)C(=O)N[C@@H](CCCNC(=N)N)C(=O)NC(C(=O)NCC(N)=O)CSCC(=O)N[C@@H](Cc2ccc(O)cc2)C(=O)N(C)[C@@H](C)C(=O)N[C@@H](CC(N)=O)C(=O)N2CCC[C@H]2C(=O)N[C@@H](CCO)C(=O)N[C@@H](CC(C)C)C(=O)N2C[C@H](O)C[C@H]2C(=O)N[C@@H](Cc2c[nH]c3ccccc23)C(=O)N[C@@H](CO)C(=O)N[C@@H](Cc2csc3ccccc23)C(=O)N1C` (some centres unmarked) [Example 9150] ({CH2CO}-Y[NMeA]NP[hSer]L[Hyp]WS[Bta][NMeNle][NMeNle]R[ξC]G-NH2; thioether N-14), the IC50 fell in the range of 1 to 9.9 nM.
On to `CCCC[C@H]1C(=O)N(C)[C@@H](CCCC)C(=O)N[C@@H](CC(C)C)C(=O)N[C@H](C(=O)NCC(N)=O)CSCC(=O)N[C@@H](Cc2ccc(O)cc2)C(=O)N(C)[C@@H](C)C(=O)N[C@@H](CC(N)=O)C(=O)N2CCC[C@H]2C(=O)N[C@@H](CO)C(=O)N[C@@H](CCC(N)=O)C(=O)N2C[C@H](O)C[C@H]2C(=O)N[C@@H](Cc2c[nH]c3ccccc23)C(=O)N[C@@H](CO)C(=O)N[C@@H](Cc2cn(CC(=O)O)c3ccccc23)C(=O)N1C` [Example 6216] ({CH2CO}-Y[NMeA]NPSQ[Hyp]WS[Trp(1-CH2COOH)][NMeNle][NMeNle]LCG-NH2; thioether N-14), for which the IC50 lay within 1 to 9.9 nM.

The assay is the same for the next values; noted with them: PD-L1-His 10 nM, PD-1-Ig 20 nM; read-out: HTRF Human PD-L1/PD-1 Binding Assay IC50.
Regarding `CCCC[C@H]1C(=O)N2C[C@@H](O)C[C@@H]2C(=O)N[C@@H](CC(=O)O)C(=O)N[C@@H](C(C)C)C(=O)N(C)[C@@H](Cc2ccccc2)C(=O)N[C@@H](CCC(=O)O)C(=O)N2C[C@H](O)C[C@@H]2C(=O)N[C@@H](Cc2c[nH]c3ccccc23)C(=O)N[C@@H](Cc2ccc(O)cc2)C(=O)N[C@@H](CCCN)C(=O)N[C@H](C(=O)NCC(N)=O)CSCC(=O)N[C@@H](Cc2cc(F)c(F)c(F)c2)C(=O)N(C)[C@@H](Cc2ccccc2)C(=O)N1C` [Example 9370] ({CH2CO}-[Phe(3,4,5-F3)][NMeF][NMeNle][dHyp]DV[NMeF]E[d(cisHyp)]WY[Orn]CG-NH2; thioether N-13), the IC50 came out at 5.7 nM.
